In PubChem BioAssay AID248 (DTP/NCI, 2004):
“And” between values parts separate entries of the source, which are not always exact repeats. Identical values can stand only once. Inconclusive results and toxic doses are left out. No stated cut-off is given here; in the data, active means T/C of 150% or more; inactive means T/C below 125%.

Tested on: L1210 leukemia ip in BDF1 mice, survival T/C
Test: NCI In Vivo Anticancer Drug Screen. Data for tumor model L1210 Leukemia (intraperitoneal) in B6D2F1 (BDF1) mice
Settings: endpoint: mean survival time, higher = longer survival
Outline: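 Value reflects the ratio of survival in compound-treated mice to survival in vehicle-treated controls, with both groups carrying the same transplanted tumor.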

[1] = dose: 100.0 mg/kg/injection, schedule: Q01DX001 (ip), vehicle: other
[2] = dose: 100.0 mg/kg/injection, schedule: Q01DX009 (ip), vehicle: saline with Tween-80
[3] = dose: 100.0 mg/kg/injection, schedule: Q04DX002 (ip), vehicle: Klucel (hydroxypropylcellulose) (HPC)
[4] = dose: 100.0 mg/kg/injection, schedule: Q04DX003 (ip), vehicle: saline with Tween-80
[5] = dose: 200.0 mg/kg/injection, schedule: Q01DX001 (ip), vehicle: other
[6] = dose: 200.0 mg/kg/injection, schedule: Q01DX009 (ip), vehicle: saline with Tween-80
[7] = dose: 200.0 mg/kg/injection, schedule: Q04DX002 (ip), vehicle: Klucel (hydroxypropylcellulose) (HPC)
[8] = dose: 200.0 mg/kg/injection, schedule: Q04DX003 (ip), vehicle: saline with Tween-80
[9] = dose: 400.0 mg/kg/injection, schedule: Q01DX001 (ip), vehicle: other
[10] = dose: 400.0 mg/kg/injection, schedule: Q04DX002 (ip), vehicle: Klucel (hydroxypropylcellulose) (HPC)
[11] = dose: 400.0 mg/kg/injection, schedule: Q04DX003 (ip), vehicle: saline with Tween-80
[12] = dose: 100.0 mg/kg/injection, schedule: Q04DX003 (ip), vehicle: Klucel (hydroxypropylcellulose) (HPC)
[13] = dose: 200.0 mg/kg/injection, schedule: Q04DX003 (ip), vehicle: Klucel (hydroxypropylcellulose) (HPC)
[14] = dose: 400.0 mg/kg/injection, schedule: Q04DX003 (ip), vehicle: Klucel (hydroxypropylcellulose) (HPC)
[15] = dose: 25.0 mg/kg/injection, schedule: Q04DX003 (ip), vehicle: saline with Tween-80
[16] = dose: 50.0 mg/kg/injection, schedule: Q01DX009 (ip), vehicle: saline with Tween-80
[17] = dose: 50.0 mg/kg/injection, schedule: Q04DX003 (ip), vehicle: saline with Tween-80
[18] = dose: 100.0 mg/kg/injection, schedule: Q01DX001 (ip), vehicle: saline

Measured: T/C

C(=C\c1ccccc1)/C=N/N=C/C=C/c1ccccc1
inactive: [1] 105 % of control | [2] 94 % of control | [3] 100 % of control | [4] 90 % of control | [5] 97 % of control | [6] 90 % of control | [7] 96 % of control | [8] 89 % of control | [9] 94 % of control | dose: 400.0 mg/kg/injection, schedule: Q01DX009 (ip), vehicle: saline with Tween-80 94 % of control | [10] 100 % of control | [11] 92 % of control

Cc1cc2c(cc1C)N(C(=O)CN1CCSCC1)CC(=O)N2
inactive: dose: 75.0 mg/kg/injection, schedule: Q01DX001 (ip), vehicle: saline 107 % of control | dose: 75.0 mg/kg/injection, schedule: Q04DX003 (ip), vehicle: saline 93 % of control | dose: 150.0 mg/kg/injection, schedule: Q01DX001 (ip), vehicle: saline 98 % of control | dose: 150.0 mg/kg/injection, schedule: Q04DX003 (ip), vehicle: saline 94 % of control | dose: 300.0 mg/kg/injection, schedule: Q01DX001 (ip), vehicle: saline 109 % of control | dose: 300.0 mg/kg/injection, schedule: Q04DX003 (ip), vehicle: saline 91 % of control

O=C1Cc2ccccc2/C=C\c2ccccc21
inactive: dose: 100.0 mg/kg/injection, schedule: Q01DX001 (ip), vehicle: Klucel (hydroxypropylcellulose) (HPC) 97 % of control | [12] 102 % of control | dose: 200.0 mg/kg/injection, schedule: Q01DX001 (ip), vehicle: Klucel (hydroxypropylcellulose) (HPC) 100 % of control | [13] 96 % of control | dose: 400.0 mg/kg/injection, schedule: Q01DX001 (ip), vehicle: Klucel (hydroxypropylcellulose) (HPC) 106 % of control | [14] 102 % of control

Cc1cc(N(C)C)cc(C)c1N=Nc1cc[n+]([O-])cc1
inactive: dose: 12.5 mg/kg/injection, schedule: Q04DX003 (ip), vehicle: saline with Tween-80 98 % of control | [15] 98 % of control | [16] 95 % of control | [17] 100 % of control | [2] 91 % of control | [6] 91 % of control

O=C(NC(c1ccccc1)c1ccccc1)c1ccccc1
inactive: dose: 25.0 mg/kg/injection, schedule: Q01DX009 (ip), vehicle: saline with Tween-80 88 % of control | [15] 97 % of control | dose: 50.0 mg/kg/injection, schedule: Q01DX001 (ip), vehicle: saline 97 % of control | [16] 88 % of control | [17] 94 % of control | [18] 91 % of control | [2] 88 % of control | [4] 89 % of control

O=C(CCl)c1c(O)cc(O)cc1O
inactive: dose: 75.0 mg/kg/injection, schedule: Q01DX001 (ip), vehicle: other 106 % of control | dose: 150.0 mg/kg/injection, schedule: Q01DX001 (ip), vehicle: other 106 % of control | dose: 300.0 mg/kg/injection, schedule: Q01DX001 (ip), vehicle: other 92 % of control

NC(c1ccccc1)c1c(O)ccc2ccccc12 (stereo not drawn)
inactive: dose: 100.0 mg/kg/injection, schedule: Q01DX009 (ip), vehicle: gum acacia 96 % of control | [4] 101 % of control | dose: 200.0 mg/kg/injection, schedule: Q01DX009 (ip), vehicle: gum acacia 98 % of control | [8] 93 % of control | dose: 400.0 mg/kg/injection, schedule: Q01DX009 (ip), vehicle: gum acacia 91 % of control | [11] 98 % of control

Cc1ccc(C[As](C)(=O)O)cc1
inactive: dose: 25.0 mg/kg/injection, schedule: Q04DX003 (ip), vehicle: Klucel (hydroxypropylcellulose) (HPC) 100 % of control | dose: 50.0 mg/kg/injection, schedule: Q04DX003 (ip), vehicle: Klucel (hydroxypropylcellulose) (HPC) 98 % of control | [12] 97 % of control

Cc1ccc(C(=O)CCC(=O)O)cc1
inactive: [4] 102 % of control | [8] 98 % of control | [11] 94 % of control

O=C(O)CCC(=O)Nc1ccc(S(=O)(=O)Nc2nccs2)cc1
inactive: dose: 3.5 mg/kg/injection, schedule: Q01DX009 (ip), vehicle: Klucel (hydroxypropylcellulose) (HPC) 93 % of control | dose: 5.3 mg/kg/injection, schedule: Q01DX009 (ip), vehicle: Klucel (hydroxypropylcellulose) (HPC) 93 % of control | dose: 8.0 mg/kg/injection, schedule: Q01DX009 (ip), vehicle: Klucel (hydroxypropylcellulose) (HPC) 91 % of control | dose: 100.0 mg/kg/injection, schedule: Q01DX009 (ip), vehicle: Klucel (hydroxypropylcellulose) (HPC) 94 % of control | [12] 101 % of control | dose: 200.0 mg/kg/injection, schedule: Q01DX009 (ip), vehicle: Klucel (hydroxypropylcellulose) (HPC) 98 % of control | [13] 103 % of control | dose: 400.0 mg/kg/injection, schedule: Q01DX009 (ip), vehicle: Klucel (hydroxypropylcellulose) (HPC) 94 % of control | [14] 97 % of control

CC(C)(Br)CNC(=O)c1cccc([N+](=O)[O-])c1
inactive: dose: 75.0 mg/kg/injection, schedule: Q01DX009 (ip), vehicle: Klucel (hydroxypropylcellulose) (HPC) 103 % of control | dose: 75.0 mg/kg/injection, schedule: Q04DX003 (ip), vehicle: Klucel (hydroxypropylcellulose) (HPC) 95 % of control | dose: 150.0 mg/kg/injection, schedule: Q01DX009 (ip), vehicle: Klucel (hydroxypropylcellulose) (HPC) 101 % of control | dose: 150.0 mg/kg/injection, schedule: Q04DX003 (ip), vehicle: Klucel (hydroxypropylcellulose) (HPC) 97 % of control | dose: 300.0 mg/kg/injection, schedule: Q01DX009 (ip), vehicle: Klucel (hydroxypropylcellulose) (HPC) 86 % of control | dose: 300.0 mg/kg/injection, schedule: Q04DX003 (ip), vehicle: Klucel (hydroxypropylcellulose) (HPC) 92 % of control

OC1C2CCN(CC2)C1C(c1ccccc1)c1ccccc1 (stereo not drawn)
inactive: [15] 95 % of control | [17] 98 % of control | [4] 96 % of control and 87 % of control

CCCC(C(=O)OCCN(CC)CC)(c1ccccc1)c1ccccc1
inactive: dose: 6.25 mg/kg/injection, schedule: Q01DX009 (ip), vehicle: saline 106 % of control | dose: 12.5 mg/kg/injection, schedule: Q01DX009 (ip), vehicle: saline 92 % of control | dose: 12.5 mg/kg/injection, schedule: Q04DX003 (ip), vehicle: saline 102 % of control | dose: 25.0 mg/kg/injection, schedule: Q01DX009 (ip), vehicle: saline 93 % of control | dose: 25.0 mg/kg/injection, schedule: Q04DX003 (ip), vehicle: saline 116 % of control | dose: 50.0 mg/kg/injection, schedule: Q01DX009 (ip), vehicle: saline 93 % of control | dose: 50.0 mg/kg/injection, schedule: Q04DX003 (ip), vehicle: saline 100 % of control | dose: 100.0 mg/kg/injection, schedule: Q04DX003 (ip), vehicle: saline 102 % of control

CC(CC(=O)O)c1ccc(C(C)(C)C)cc1 (stereo not drawn)
inactive: [12] 95 % of control | [13] 107 % of control | [14] 98 % of control

CCOC(=O)CCc1c(C(=O)OCC)[nH]c2ccc(Cl)cc12
inactive: [3] 96 % of control | [7] 100 % of control | [10] 96 % of control

CC(=O)OC1(C(C)(C)C)C(=O)C(=[N+]=[N-])C(O)(C(C)(C)C)C(=O)C1=[N+]=[N-] (stereo not drawn)
inactive: [1] 97 % of control | [5] 97 % of control | [9] 97 % of control

CC(Nc1nc(SCc2ccccc2)c2ncn(C3OC(CO)C(O)C3O)c2n1)C(=O)O (stereo not drawn)
inactive: dose: 50.0 mg/kg/injection, schedule: Q01DX001 (ip), vehicle: carboxymethylcellulose (CMC) 107 % of control | dose: 100.0 mg/kg/injection, schedule: Q01DX001 (ip), vehicle: carboxymethylcellulose (CMC) 109 % of control | dose: 200.0 mg/kg/injection, schedule: Q01DX001 (ip), vehicle: carboxymethylcellulose (CMC) 104 % of control | dose: 400.0 mg/kg/injection, schedule: Q01DX001 (ip), vehicle: carboxymethylcellulose (CMC) 104 % of control

Cc1c([N+](=O)[O-])cc(NC(=O)/C=C\C(=O)O)cc1[N+](=O)[O-]
inactive: [4] 113 % of control | [8] 113 % of control | [11] 109 % of control

O=S(=O)(Nc1ncccn1)c1ccc(N=Nc2ccc(O)c3ncccc23)cc1
inactive: [18] 100 % of control | dose: 200.0 mg/kg/injection, schedule: Q01DX001 (ip), vehicle: saline 103 % of control | dose: 400.0 mg/kg/injection, schedule: Q01DX001 (ip), vehicle: saline 103 % of control
